The values below come from US4318917A, “Antiinflammatory 2,3-diaryl-5-[2,2,2-trifluoro-1-(trifluoromethyl]ethyl-1H-pyrroles” (E. I. Du Pont de Nemours and Company, priority 1981, dated 1982).

This assay has as its system adjuvant-induced arthritis in rats. The assay is described as follows: Established Adjuvant-Induced Arthritis in Rats (paw volume). It counts as in vivo, rat (Charles River Lewis male rats). The conditions noted are these: oral gavage, 7 daily doses; for ED50: Rattus norvegicus, uninjected left hind paw, established adjuvant arthritis, read-out: Adjuvant Arthritis ED50 (ED50% decrease from control paw volume). As to the method:
A procedure for detecting and comparing the antiinflammatory activity of compounds in this series and standard drugs for which there is a good correlation with human efficacy is the adjuvant-induced arthritis test in rats.
The test procedure employed for determining antiinflammatory activity is described below.
Established Adjuvant-Induced Arthritis in Rats
Charles River Lewis male rats (130-150 grams) are injected subcutaneously in plantar area of the right hind paw with 0.1 ml of adjuvant (Difco heat-killed, lyophilized Mycobacterium butyricum suspended in mineral oil 5 mg/ml). 20 Non-arthritic controls are injected with mineral oil. The animals are held for 2 weeks to allow development of arthritis. Paw volumes (uninjected, left hind paw) are measured and the adjuvant injected rats are culled and distributed to treatment groups of 10 of equal disease severity. Non-arthritic controls are distributed to 2 groups of 10. The rats are given oral doses of compound or PVA-Acacia (Polyvinyl Alcohol 1%, Gum Acacia, U.S.P. 5%, Methylparaben 0.5%) (10 ml/kg) by gavage on that day and on the 6 following days. One day after the last dose the paw volumes (uninjected, left hind paw) are measured using a Ugo Basile Volume Differential Meter Model 7101. [formula]
% Decrease from Control Mean Paw Volume.
Dose-response regression lines of the % decrease are plotted on semi-log paper by visual fit and the ED50% decrease from control paw volume is determined by inspection.

Take `FC(F)(F)C(c1cc(-c2ccccc2)c(-c2ccccc2)[nH]1)C(F)(F)F` [Example 1, 2,3-Diphenyl-5-[2,2,2-trifluoro-1-(trifluoromethyl)-ethyl]-1H-pyrrole]: the 50% effective dose (ED50) was determined as 11 mg/kg.
Still for that read-out and setting: next, `Fc1ccc(-c2cc(C(C(F)(F)F)C(F)(F)F)[nH]c2-c2ccc(F)cc2)cc1` [Example 2, 2,3-Bis(4-fluorophenyl)-5-[2,2,2-trifluoro-1-(trifluoromethyl)ethyl]-1H-pyrrole]: 4 mg/kg; `FC(F)(F)C(c1cc(-c2ccc(Cl)cc2)c(-c2ccc(Cl)cc2)[nH]1)C(F)(F)F` [Example 3]: 15 mg/kg.
Same read-out and setting: under `Fc1ccc(-c2cc(C(C(F)(F)F)C(F)(F)F)[nH]c2-c2ccc(Br)cc2)cc1` [Example 4] stands 3.9 mg/kg.
Regarding `Fc1ccc(-c2cc(C(C(F)(F)F)C(F)(F)F)[nH]c2-c2cccnc2)cc1` [Example 5], for the setting “at 5 mg/kg”, the “percent reduction in paw volume at the indicated dose” value stood at 0%.
`CSc1ccc(-c2[nH]c(C(C(F)(F)F)C(F)(F)F)cc2-c2ccc(F)cc2)cc1` [Example 6]: the 50% effective dose (ED50) worked out at 2.5 mg/kg.
On the same count and under the same terms, next, `Fc1ccc(C2=CC(=C(C(F)(F)F)C(F)(F)F)N=C2c2ccc(F)cc2)cc1` [Example 17, 4,5-Bis(4-fluorophenyl)-2-[2,2,2-trifluoro-1-(trifluoromethyl)ethylidene]-2H-pyrrole]: 33 mg/kg.
For `Fc1ccc(C2=CC(=C(C(F)(F)F)C(F)(F)F)N=C2c2ccc(Br)cc2)cc1` [Example 18, 5-(4-bromophenyl)-4-(4-fluorophenyl)-2-[2,2,2-trifluoro-1-(trifluoromethyl)ethylidene]-2H-pyrrole], under “at 25 mg/kg”, the “percent reduction in paw volume at the indicated dose” value was 16%.
